Values quoted from earlier work, collected in patent publication US20020160961A1, “Compositions for the treatment of the catabolic state of prolonged critical illness” (priority 1999, published 2002).

Test system: pulsatile TSH secretion
Details: TRH infused together with GHRP-2; catabolic state of prolonged critical illness

NC(=O)[C@@H]1CCCN1C(=O)[C@H](Cc1cnc[nH]1)NC(=O)[C@@H]1CCC(=O)N1 [TRH, thyrotropin-releasing hormone]
pulsatile TSH secretion: increased pulsatile TSH secretion
